# Reference: patent publication US8192962B2, “Processes for detecting toxic substances” (Daikin Industries, Ltd., priority 2001, dated 2012)
# Test system: Stress protein genes
# Assay: DNA chip mRNA expression in yeast, stress protein genes (Table 6)
# Type: cell-based, Saccharomyces cerevisiae S288C
# Procedure, shortened: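 Value is the scanned fluorescence intensity ratio of exposed versus chemical-free cells. Log-phase S288C yeast in YPD at 25° C. received one toxic substance for two hours, dosed to slow growth without killing; Cy3/Cy5-labeled cDNA from oligo-dT-purified mRNA was hybridized to a whole-genome chip at 65° C.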
structure (smiles),measurement,setting,value
"O=[N+]([O-])c1cc[n+]([O-])c2ccccc12 [(5), 4-nitroquinolin-N-oxide]",The level of expressed mRNA in the presence of chemical substance/The level of expressed mRNA in the absence of chemical substance,yeast gene YAL005C,1.2
same,The level of expressed mRNA in the presence of chemical substance/The level of expressed mRNA in the absence of chemical substance,yeast gene YAL015C,1.1
same,The level of expressed mRNA in the presence of chemical substance/The level of expressed mRNA in the absence of chemical substance,yeast gene YBL075C,1.1
same,The level of expressed mRNA in the presence of chemical substance/The level of expressed mRNA in the absence of chemical substance,yeast gene YBL093C,1.0
same,The level of expressed mRNA in the presence of chemical substance/The level of expressed mRNA in the absence of chemical substance,yeast gene YBR044C,1.4
same,The level of expressed mRNA in the presence of chemical substance/The level of expressed mRNA in the absence of chemical substance,yeast gene YBR054W,0.8
same,The level of expressed mRNA in the presence of chemical substance/The level of expressed mRNA in the absence of chemical substance,yeast gene YBR067C,1.1
same,The level of expressed mRNA in the presence of chemical substance/The level of expressed mRNA in the absence of chemical substance,yeast gene YBR072W,1.2
same,The level of expressed mRNA in the presence of chemical substance/The level of expressed mRNA in the absence of chemical substance,yeast gene YBR126C,0.7
same,The level of expressed mRNA in the presence of chemical substance/The level of expressed mRNA in the absence of chemical substance,yeast gene YBR169C,0.8
same,The level of expressed mRNA in the presence of chemical substance/The level of expressed mRNA in the absence of chemical substance,yeast gene YCL035C,1.5
same,The level of expressed mRNA in the presence of chemical substance/The level of expressed mRNA in the absence of chemical substance,yeast gene YCR021C,0.9
same,The level of expressed mRNA in the presence of chemical substance/The level of expressed mRNA in the absence of chemical substance,yeast gene YCR060W,0.8
same,The level of expressed mRNA in the presence of chemical substance/The level of expressed mRNA in the absence of chemical substance,yeast gene YCR083W,1.6
same,The level of expressed mRNA in the presence of chemical substance/The level of expressed mRNA in the absence of chemical substance,yeast gene YDL022W,0.7
same,The level of expressed mRNA in the presence of chemical substance/The level of expressed mRNA in the absence of chemical substance,yeast gene YDL025C,0.6
same,The level of expressed mRNA in the presence of chemical substance/The level of expressed mRNA in the absence of chemical substance,yeast gene YDR033W,1.1
same,The level of expressed mRNA in the presence of chemical substance/The level of expressed mRNA in the absence of chemical substance,yeast gene YDR077W,0.8
same,The level of expressed mRNA in the presence of chemical substance/The level of expressed mRNA in the absence of chemical substance,yeast gene YDR098C,1.5
same,The level of expressed mRNA in the presence of chemical substance/The level of expressed mRNA in the absence of chemical substance,yeast gene YDR155C,0.8
same,The level of expressed mRNA in the presence of chemical substance/The level of expressed mRNA in the absence of chemical substance,yeast gene YDR258C,1.3
same,The level of expressed mRNA in the presence of chemical substance/The level of expressed mRNA in the absence of chemical substance,yeast gene YDR293C,0.6
same,The level of expressed mRNA in the presence of chemical substance/The level of expressed mRNA in the absence of chemical substance,yeast gene YDR436W,0.7
same,The level of expressed mRNA in the presence of chemical substance/The level of expressed mRNA in the absence of chemical substance,yeast gene YDR513W,0.9
same,The level of expressed mRNA in the presence of chemical substance/The level of expressed mRNA in the absence of chemical substance,yeast gene YDR519W,0.7
same,The level of expressed mRNA in the presence of chemical substance/The level of expressed mRNA in the absence of chemical substance,yeast gene YEL030W,0.4
same,The level of expressed mRNA in the presence of chemical substance/The level of expressed mRNA in the absence of chemical substance,yeast gene YEL039C,0.9
same,The level of expressed mRNA in the presence of chemical substance/The level of expressed mRNA in the absence of chemical substance,yeast gene YER042W,1.1
same,The level of expressed mRNA in the presence of chemical substance/The level of expressed mRNA in the absence of chemical substance,yeast gene YER057C,0.8
same,The level of expressed mRNA in the presence of chemical substance/The level of expressed mRNA in the absence of chemical substance,yeast gene YER103W,1.1
same,The level of expressed mRNA in the presence of chemical substance/The level of expressed mRNA in the absence of chemical substance,yeast gene YER125W,1.4
same,The level of expressed mRNA in the presence of chemical substance/The level of expressed mRNA in the absence of chemical substance,yeast gene YFL014W,1.0
same,The level of expressed mRNA in the presence of chemical substance/The level of expressed mRNA in the absence of chemical substance,yeast gene YFL016C,1.3
same,The level of expressed mRNA in the presence of chemical substance/The level of expressed mRNA in the absence of chemical substance,yeast gene YFL020C,1.1
same,The level of expressed mRNA in the presence of chemical substance/The level of expressed mRNA in the absence of chemical substance,yeast gene YFR052W,1.4
same,The level of expressed mRNA in the presence of chemical substance/The level of expressed mRNA in the absence of chemical substance,yeast gene YGL073W,1.7
same,The level of expressed mRNA in the presence of chemical substance/The level of expressed mRNA in the absence of chemical substance,yeast gene YGL115W,1.2
same,The level of expressed mRNA in the presence of chemical substance/The level of expressed mRNA in the absence of chemical substance,yeast gene YGL181W,1.1
same,The level of expressed mRNA in the presence of chemical substance/The level of expressed mRNA in the absence of chemical substance,yeast gene YGR088W,1.0
same,The level of expressed mRNA in the presence of chemical substance/The level of expressed mRNA in the absence of chemical substance,yeast gene YHL028W,1.1
same,The level of expressed mRNA in the presence of chemical substance/The level of expressed mRNA in the absence of chemical substance,yeast gene YHL046C,0.9
same,The level of expressed mRNA in the presence of chemical substance/The level of expressed mRNA in the absence of chemical substance,yeast gene YHR030C,1.8
same,The level of expressed mRNA in the presence of chemical substance/The level of expressed mRNA in the absence of chemical substance,yeast gene YHR057C,1.3
same,The level of expressed mRNA in the presence of chemical substance/The level of expressed mRNA in the absence of chemical substance,yeast gene YHR104W,1.1
same,The level of expressed mRNA in the presence of chemical substance/The level of expressed mRNA in the absence of chemical substance,yeast gene YIL011W,1.1
same,The level of expressed mRNA in the presence of chemical substance/The level of expressed mRNA in the absence of chemical substance,yeast gene YIL033C,0.7
same,The level of expressed mRNA in the presence of chemical substance/The level of expressed mRNA in the absence of chemical substance,yeast gene YIR037W,0.6
same,The level of expressed mRNA in the presence of chemical substance/The level of expressed mRNA in the absence of chemical substance,yeast gene YIR038C,0.7
same,The level of expressed mRNA in the presence of chemical substance/The level of expressed mRNA in the absence of chemical substance,yeast gene YJL128C,1.2
same,The level of expressed mRNA in the presence of chemical substance/The level of expressed mRNA in the absence of chemical substance,yeast gene YJL158C,1.4
same,The level of expressed mRNA in the presence of chemical substance/The level of expressed mRNA in the absence of chemical substance,yeast gene YJL159W,1.0
same,The level of expressed mRNA in the presence of chemical substance/The level of expressed mRNA in the absence of chemical substance,yeast gene YJL165C,1.1
same,The level of expressed mRNA in the presence of chemical substance/The level of expressed mRNA in the absence of chemical substance,yeast gene YJR045C,0.5
same,The level of expressed mRNA in the presence of chemical substance/The level of expressed mRNA in the absence of chemical substance,yeast gene YJR090C,1.2
same,The level of expressed mRNA in the presence of chemical substance/The level of expressed mRNA in the absence of chemical substance,yeast gene YKL161C,1.4
same,The level of expressed mRNA in the presence of chemical substance/The level of expressed mRNA in the absence of chemical substance,yeast gene YKL163W,0.6
same,The level of expressed mRNA in the presence of chemical substance/The level of expressed mRNA in the absence of chemical substance,yeast gene YKL164C,1.1
same,The level of expressed mRNA in the presence of chemical substance/The level of expressed mRNA in the absence of chemical substance,yeast gene YKL210W,0.8
same,The level of expressed mRNA in the presence of chemical substance/The level of expressed mRNA in the absence of chemical substance,yeast gene YKR053C,1.0
same,The level of expressed mRNA in the presence of chemical substance/The level of expressed mRNA in the absence of chemical substance,yeast gene YLL024C,0.7
same,The level of expressed mRNA in the presence of chemical substance/The level of expressed mRNA in the absence of chemical substance,yeast gene YLL026W,0.9
same,The level of expressed mRNA in the presence of chemical substance/The level of expressed mRNA in the absence of chemical substance,yeast gene YLL039C,0.9
same,The level of expressed mRNA in the presence of chemical substance/The level of expressed mRNA in the absence of chemical substance,yeast gene YLL060C,0.9
same,The level of expressed mRNA in the presence of chemical substance/The level of expressed mRNA in the absence of chemical substance,yeast gene YLR006C,1.6
same,The level of expressed mRNA in the presence of chemical substance/The level of expressed mRNA in the absence of chemical substance,yeast gene YLR109W,1.3
same,The level of expressed mRNA in the presence of chemical substance/The level of expressed mRNA in the absence of chemical substance,yeast gene YLR259C,1.1
same,The level of expressed mRNA in the presence of chemical substance/The level of expressed mRNA in the absence of chemical substance,yeast gene YML007W,1.0
same,The level of expressed mRNA in the presence of chemical substance/The level of expressed mRNA in the absence of chemical substance,yeast gene YML070W,1.4
same,The level of expressed mRNA in the presence of chemical substance/The level of expressed mRNA in the absence of chemical substance,yeast gene YMR021C,1.6
same,The level of expressed mRNA in the presence of chemical substance/The level of expressed mRNA in the absence of chemical substance,yeast gene YMR173W,1.1
same,The level of expressed mRNA in the presence of chemical substance/The level of expressed mRNA in the absence of chemical substance,yeast gene YMR186W,1.3
same,The level of expressed mRNA in the presence of chemical substance/The level of expressed mRNA in the absence of chemical substance,yeast gene YNL064C,0.9
same,The level of expressed mRNA in the presence of chemical substance/The level of expressed mRNA in the absence of chemical substance,yeast gene YNL160W,1.3
same,The level of expressed mRNA in the presence of chemical substance/The level of expressed mRNA in the absence of chemical substance,yeast gene YNL241C,0.8
same,The level of expressed mRNA in the presence of chemical substance/The level of expressed mRNA in the absence of chemical substance,yeast gene YNR076W,1.2
same,The level of expressed mRNA in the presence of chemical substance/The level of expressed mRNA in the absence of chemical substance,yeast gene YOL064C,0.9
same,The level of expressed mRNA in the presence of chemical substance/The level of expressed mRNA in the absence of chemical substance,yeast gene YOL161C,0.9
same,The level of expressed mRNA in the presence of chemical substance/The level of expressed mRNA in the absence of chemical substance,yeast gene YOR008C,1.4
same,The level of expressed mRNA in the presence of chemical substance/The level of expressed mRNA in the absence of chemical substance,yeast gene YOR009W,0.8
same,The level of expressed mRNA in the presence of chemical substance/The level of expressed mRNA in the absence of chemical substance,yeast gene YOR010C,1.2
same,The level of expressed mRNA in the presence of chemical substance/The level of expressed mRNA in the absence of chemical substance,yeast gene YOR027W,1.0
same,The level of expressed mRNA in the presence of chemical substance/The level of expressed mRNA in the absence of chemical substance,yeast gene YOR208W,1.4
same,The level of expressed mRNA in the presence of chemical substance/The level of expressed mRNA in the absence of chemical substance,yeast gene YPL059W,1.2
same,The level of expressed mRNA in the presence of chemical substance/The level of expressed mRNA in the absence of chemical substance,yeast gene YPL106C,1.2
same,The level of expressed mRNA in the presence of chemical substance/The level of expressed mRNA in the absence of chemical substance,yeast gene YPL140C,0.8
same,The level of expressed mRNA in the presence of chemical substance/The level of expressed mRNA in the absence of chemical substance,yeast gene YPL194W,1.3
same,The level of expressed mRNA in the presence of chemical substance/The level of expressed mRNA in the absence of chemical substance,yeast gene YPL223C,0.9
same,The level of expressed mRNA in the presence of chemical substance/The level of expressed mRNA in the absence of chemical substance,yeast gene YPL240C,1.3
same,The level of expressed mRNA in the presence of chemical substance/The level of expressed mRNA in the absence of chemical substance,yeast gene YPR005C,1.0
same,The level of expressed mRNA in the presence of chemical substance/The level of expressed mRNA in the absence of chemical substance,yeast gene YPR026W,0.8
